Test results from US20240335438A1, “TARGETING DOT1L AND SMARCA4/2 FOR THE TREATMENT OF MLLR LEUKEMIA” (DANA-FARBER CANCER INSTITUTE, INC., priority 2021, published 2024).
“Also recorded” adds a separate entry of the source.

Tests used:
His-CRBN = His-CRBN (Homo sapiens, UniProt Q96SW2); test: CRBN binding, biotin-pomalidomide probe with streptavidin donor and nickel chelate acceptor beads; conditions: 50 nM His-CRBN, 1 hr, FIG. 1B
Description: 50 nM of His-CRBN was incubated with biotinylated probe (biotin-pomalidomide), streptavidin donor beads (PerkinElmer®), nickel chelate acceptor beads (PerkinElmer®) and compounds (S31, PFI3 or pomalidomide at indicated concentrations) for 1 hr. After incubation, […] was read according to manufacture instructions (FIG. 1B).

cleaved PARP = test: Cleaved PARP expression (apoptosis); type: cell-based; conditions: after 6 hours of treatment
Description: (§1) MOLM13 WT and CRBN KO cells were treated with 1 μM of S31 at indicated time points. Cell lysates were harvested, and proteins were extracted using RIPA buffer.
Chemical inhibition of targeted proteins offered the opportunity to understand the function and therapeutic potential of the targets with temporal control. There are several small molecule inhibitors that have been reported to target SMARCA2/4. […] Therefore, PROTACs, bridging small molecules that recruit the target protein into proximity with the E3 ligase system to initiate proteasomal degradation of targeted proteins inside the cells, were developed to target SMARCA2/4. The strategy has recently been described and utilized for the depletion of multiple targets including BRD4, FKBP12, ERR, RIPK2 and BRD9. Compound (1) (S31) is a molecule that contains phthalimide (thalidomide, lenalidomide and pomalidomide, also known as IMiDs®), a CRBN binder, and a SMARCA4/2 binder that are linked via an alkyl linker. The PROTAC dimerized targeted proteins and CRBN, and induced polyubiquitylation followed by proteasomal degradation of SMARCA4/2.

SMARCA2 [1] = target: T1, SMARCA2 (Homo sapiens, UniProt P51531); test: DSF assay (Protein Thermal Shift Dye Kit), SMARCA2 binding; conditions: 30 min incubation, indicated ratios, FIG. 1A
Description: (§2) Recombinant SMARCA4 and SMARCA2 proteins were incubated with S31 at indicated ratios. After 30 min of incubation, DSF assay was performed using Protein Thermal Shift™ Dye Kit (ThermoFisher™) according to manufacture instructions (FIG. 1A).

SMARCA4 [2] = target: T2, SMARCA4 (Homo sapiens, UniProt P51532); test: DSF assay (Protein Thermal Shift Dye Kit), SMARCA4 binding; conditions: 30 min incubation, indicated ratios, FIG. 1A
Description: as §2

SMARCA2 [3] = target: T1, SMARCA2; test: SMARCA2 degradation by Western Blotting in MOLM13 cells; type: cell-based; parameters: endogenous in cells; host or cells: MOLM13 WT and CRBN KO cells; conditions: MOLM13 WT and CRBN KO cells, 1 μM, indicated time points, FIG. 2
Description: as §1

SMARCA4 [4] = target: T2, SMARCA4; test: SMARCA4 degradation by Western Blotting in MOLM13 cells; type: cell-based; parameters: endogenous in cells; host or cells: MOLM13 WT and CRBN KO cells; conditions: MOLM13 WT and CRBN KO cells, 1 μM, indicated time points, FIG. 2
Description: as §1

[5] = test system: panel of leukemia cell lines; test: Growth inhibition in a panel of leukemia cell lines (ATPlite); type: cell-based; conditions: 72 hr, FIG. 3
Description: S31 was treated in a panel of leukemia cell lines with 10 doses ranging from 10 μM to 1 nM. After 72 hr of treatment, growth inhibition was determined by ATPlite™ (PerkinElmer®). IC50 was calculated by GraphPad Prism® 7 (FIG. 3).

MLL-AF9 targets = test: RNA sequencing of MLL-AF9 targets (heatmap, GSEA) in MOLM13 cells; type: cell-based; conditions: EPZ5676 1.25 μM 4 days, S31 1 μM 6-10 hr, FIG. 11A
Description: MOLM13 cells were primed with 1.25 μM of EPZ5676 or DMSO for 4 days. At day 5, additional S31 (1 μM) or DMSO was added for another 6-10 hr. Cells were harvested and subjected to RNA isolation. Isolated RNA was sent to Novogene (USA) for RNA sequencing. Expression values of MLL-AF9 targets from each treatment group were plotted in heatmap (Morpheus) (FIG. 11A). GSEA analysis was performed by GSEA software 4.1.0 (Broad Institute) (FIG. 11B).
The molecular interdependency between DOT1L inhibition and SMARCA4/2 inactivation was explored using RNA-seq in MOLM13 cells treated with DMSO. S31. EPZ5676 and S31+EPZ5676. Persistent expression of MLL fusion targets maintained the leukemic transformation as a stem cell-like state. […] To define a detailed regulatory pattern of the effects of SMARCA4/2 and DOT1L on these genes, the RNA-seq results were plotted in a heatmap and identified one subset of genes are of particular interest. […] However, the combination of the two induced significant reduction of genes such as MYB and FLT3, which are critical for MLLr leukemia proliferation. S31 sensitized such MLL-AF9) targets to EPZ5676. This was confirmed via Q-PCR.

MLL rearranged cells = conditions: cited from earlier work
[6] = test system: MLLr acute myeloid leukemia (AML); conditions: cited from earlier work

T1 sequence (P51531 whole entry): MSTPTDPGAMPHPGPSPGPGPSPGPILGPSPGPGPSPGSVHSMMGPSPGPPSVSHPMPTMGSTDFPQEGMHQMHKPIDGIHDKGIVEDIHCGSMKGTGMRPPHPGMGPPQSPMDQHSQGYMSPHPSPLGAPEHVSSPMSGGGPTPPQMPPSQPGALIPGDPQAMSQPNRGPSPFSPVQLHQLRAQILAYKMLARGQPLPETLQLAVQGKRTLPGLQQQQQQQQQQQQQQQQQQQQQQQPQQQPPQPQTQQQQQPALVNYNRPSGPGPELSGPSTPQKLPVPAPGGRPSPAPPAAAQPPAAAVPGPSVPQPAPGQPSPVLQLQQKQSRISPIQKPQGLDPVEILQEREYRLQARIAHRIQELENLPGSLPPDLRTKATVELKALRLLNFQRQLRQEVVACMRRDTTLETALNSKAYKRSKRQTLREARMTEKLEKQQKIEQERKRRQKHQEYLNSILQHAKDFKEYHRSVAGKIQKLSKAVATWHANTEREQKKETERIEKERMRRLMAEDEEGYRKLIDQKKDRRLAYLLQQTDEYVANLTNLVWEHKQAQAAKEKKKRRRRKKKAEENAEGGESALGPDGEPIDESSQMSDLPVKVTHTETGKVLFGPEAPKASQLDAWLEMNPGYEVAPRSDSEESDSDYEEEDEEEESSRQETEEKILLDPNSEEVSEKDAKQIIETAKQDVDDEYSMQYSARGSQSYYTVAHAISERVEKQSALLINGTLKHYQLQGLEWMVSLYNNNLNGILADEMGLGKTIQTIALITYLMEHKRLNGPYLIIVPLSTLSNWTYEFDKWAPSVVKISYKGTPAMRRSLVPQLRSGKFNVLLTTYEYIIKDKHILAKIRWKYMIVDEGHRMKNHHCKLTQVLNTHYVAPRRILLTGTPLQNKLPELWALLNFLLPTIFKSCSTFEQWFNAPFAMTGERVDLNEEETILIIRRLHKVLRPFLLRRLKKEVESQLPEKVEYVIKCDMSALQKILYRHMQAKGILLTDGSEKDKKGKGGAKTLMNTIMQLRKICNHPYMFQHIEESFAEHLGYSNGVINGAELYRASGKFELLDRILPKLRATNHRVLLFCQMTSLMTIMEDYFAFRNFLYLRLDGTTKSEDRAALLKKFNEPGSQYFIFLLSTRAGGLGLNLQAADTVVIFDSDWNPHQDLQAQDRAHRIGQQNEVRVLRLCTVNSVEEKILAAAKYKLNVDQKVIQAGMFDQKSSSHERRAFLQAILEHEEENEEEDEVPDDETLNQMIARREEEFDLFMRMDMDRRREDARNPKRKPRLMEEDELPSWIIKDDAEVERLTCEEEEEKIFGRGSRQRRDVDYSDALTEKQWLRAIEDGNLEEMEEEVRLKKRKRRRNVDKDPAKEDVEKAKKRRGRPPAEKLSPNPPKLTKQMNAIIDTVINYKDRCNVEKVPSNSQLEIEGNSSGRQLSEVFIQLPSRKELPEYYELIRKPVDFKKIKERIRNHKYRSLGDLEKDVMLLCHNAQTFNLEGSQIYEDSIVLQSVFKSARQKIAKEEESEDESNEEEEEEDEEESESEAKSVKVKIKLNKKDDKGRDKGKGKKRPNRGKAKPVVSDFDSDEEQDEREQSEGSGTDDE
T2 sequence (P51532 whole entry): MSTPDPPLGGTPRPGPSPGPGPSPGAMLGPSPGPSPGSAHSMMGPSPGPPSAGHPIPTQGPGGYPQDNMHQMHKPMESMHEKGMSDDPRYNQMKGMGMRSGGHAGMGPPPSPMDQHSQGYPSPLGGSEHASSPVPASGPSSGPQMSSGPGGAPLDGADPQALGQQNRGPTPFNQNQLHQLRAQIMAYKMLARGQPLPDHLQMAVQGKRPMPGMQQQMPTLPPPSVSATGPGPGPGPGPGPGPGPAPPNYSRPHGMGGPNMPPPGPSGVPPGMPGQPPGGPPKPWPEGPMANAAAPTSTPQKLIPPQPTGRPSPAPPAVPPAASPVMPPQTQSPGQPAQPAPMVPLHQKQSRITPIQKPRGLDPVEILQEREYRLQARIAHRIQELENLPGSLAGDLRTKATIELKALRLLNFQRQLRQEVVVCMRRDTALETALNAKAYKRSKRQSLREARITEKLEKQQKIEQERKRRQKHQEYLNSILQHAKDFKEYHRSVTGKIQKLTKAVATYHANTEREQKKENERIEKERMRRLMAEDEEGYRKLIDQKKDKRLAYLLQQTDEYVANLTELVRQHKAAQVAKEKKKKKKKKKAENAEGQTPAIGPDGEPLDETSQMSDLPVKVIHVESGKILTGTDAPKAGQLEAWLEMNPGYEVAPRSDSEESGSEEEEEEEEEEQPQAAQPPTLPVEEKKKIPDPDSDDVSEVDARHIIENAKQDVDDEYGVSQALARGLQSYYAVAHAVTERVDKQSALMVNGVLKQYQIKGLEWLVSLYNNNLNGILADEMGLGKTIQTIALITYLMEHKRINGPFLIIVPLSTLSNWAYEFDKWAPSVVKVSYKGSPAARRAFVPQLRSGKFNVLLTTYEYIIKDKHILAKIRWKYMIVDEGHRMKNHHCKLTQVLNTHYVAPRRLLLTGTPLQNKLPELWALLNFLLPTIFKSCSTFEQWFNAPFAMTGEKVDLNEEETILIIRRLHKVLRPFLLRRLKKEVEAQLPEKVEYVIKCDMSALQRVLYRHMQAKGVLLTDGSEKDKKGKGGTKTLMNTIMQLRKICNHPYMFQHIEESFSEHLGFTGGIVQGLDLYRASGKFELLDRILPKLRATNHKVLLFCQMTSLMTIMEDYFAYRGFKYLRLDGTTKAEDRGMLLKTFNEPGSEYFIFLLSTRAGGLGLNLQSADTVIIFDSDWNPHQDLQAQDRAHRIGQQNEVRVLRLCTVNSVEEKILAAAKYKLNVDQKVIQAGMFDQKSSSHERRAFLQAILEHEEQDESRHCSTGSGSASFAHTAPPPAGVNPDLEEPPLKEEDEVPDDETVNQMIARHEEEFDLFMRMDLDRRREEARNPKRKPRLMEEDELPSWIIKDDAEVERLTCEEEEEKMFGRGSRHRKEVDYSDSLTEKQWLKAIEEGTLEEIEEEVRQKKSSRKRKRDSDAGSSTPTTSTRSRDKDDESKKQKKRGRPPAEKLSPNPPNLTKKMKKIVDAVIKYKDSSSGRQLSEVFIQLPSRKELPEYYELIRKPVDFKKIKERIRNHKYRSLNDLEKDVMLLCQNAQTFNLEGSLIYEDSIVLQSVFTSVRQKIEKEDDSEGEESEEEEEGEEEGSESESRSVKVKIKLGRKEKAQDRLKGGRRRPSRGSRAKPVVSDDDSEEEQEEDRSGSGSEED
His-CRBN, sequence (Q96SW2 whole entry): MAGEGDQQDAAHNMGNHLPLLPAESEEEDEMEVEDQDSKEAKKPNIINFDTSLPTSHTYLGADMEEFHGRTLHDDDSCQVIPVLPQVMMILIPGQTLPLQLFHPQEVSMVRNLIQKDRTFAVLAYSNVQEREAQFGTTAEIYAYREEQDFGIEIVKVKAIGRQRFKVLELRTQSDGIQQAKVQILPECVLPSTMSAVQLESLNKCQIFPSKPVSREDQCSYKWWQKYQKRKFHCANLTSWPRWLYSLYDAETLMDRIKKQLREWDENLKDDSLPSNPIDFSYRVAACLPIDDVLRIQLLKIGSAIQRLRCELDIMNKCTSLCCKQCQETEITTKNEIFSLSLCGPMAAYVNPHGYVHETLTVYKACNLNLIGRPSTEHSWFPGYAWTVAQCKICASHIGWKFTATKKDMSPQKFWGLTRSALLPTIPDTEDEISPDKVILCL

Row | Compound | binding to CRBN (His-CRBN) | cleaved PARP expression, indicating apoptosis (cleaved PARP) | binding to SMARCA2 (SMARCA2 [1]) | binding to SMARCA4 (SMARCA4 [2]) | SMARCA2 degradation (SMARCA2 [3]) | SMARCA4 degradation (SMARCA4 [4]) | IC50 of cell growth ([5]; 10 doses from 10 μM to 1 nM) | cell growth inhibition / cytotoxicity [5] | expression of MLL-AF9 target genes (subset such as MYB and FLT3), RNA-seq heatmap (MLL-AF9 targets) | anti-proliferative effects (MLL rearranged cells) | clinical response ([6]; monotherapy) | side effect profile ([6]; treatment of MLLr AML)
1 | O=C1CCC(N2C(=O)c3ccc(NCCCCCCCCOCCc4cccc(N5C[C@H]6C[C@@H]5CN6/C=C/C(=O)c5ccccc5O)c4)cc3C2=O)C(=O)N1 (stereo partly drawn) [S31, 2-(2,6-dioxopiperidin-3-yl)-5-((8-(3-((1R,4R)-5-((E)-3-(2-hydroxyphenyl)-3-oxoprop-1-en-1-yl)-2,5-diazabicyclo[2.2.1]heptan-2-yl)phenethoxy)octyl)amino)isoindoline-1,3-dione] | binds | cleaved PARP expression abundance was observed | binds | binds | degraded; also recorded: degradation was observed | degraded; also recorded: degradation was observed | low nanomolar range | profound inhibition; also recorded: induces cytotoxicity | could not—or just slightly—affect the gene expression; also recorded: sensitizes MLL-AF9 targets to EPZ5676 |  |  | 
2 | CC(C)N(C[C@H]1OC(n2cnc3c(N)ncnc32)[C@H](O)[C@@H]1O)C1CC(CCc2nc3cc(C(C)(C)C)ccc3[nH]2)C1 (stereo partly drawn) [EPZ5676, (2R,3R,4S,5R)-2-(6-amino-9H-purin-9-yl)-5-((((1s,3R)-3-(2-(5-(tert-butyl)-1H-benzo[d]imidazol-2-yl)ethyl)cyclobutyl)(isopropyl)amino)methyl)tetrahydrofuran-3,4-diol] |  |  |  |  |  |  |  |  | could not—or just slightly—affect the gene expression | remarkably selective anti-proliferative effects | low effective responses and subsequent relapses | promising side effect profile
